Data published in patent US20250099433A1, “COMPOSITION AND METHOD FOR TREATMENT OF GRAM NEGATIVE BACTERIAL INFECTION” (The Research Foundation for the State University of New York, priority 2021, published 2025).
Converted amounts (≈) assume the structure as drawn. “And” between values parts separate entries of the source, which are not always exact repeats. Identical values can stand only once.

Experiments:
[1] = test system: P. aeruginosa PAO1; assay: MIC by microbroth dilution, P. aeruginosa PAO1; conditions: for MIC: Pseudomonas aeruginosa, PAO1, read-out: MIC (μM) (PAO1)
[2] = test system: efflux-pump mutant strain (ΔMexABCDXY) (paEP); assay: MIC by microbroth dilution, efflux-pump mutant P. aeruginosa; conditions: Pseudomonas aeruginosa, read-out: MIC (μM) (paEP)
Description: Bacterial Strains. […] The efflux-pump deficient P. aeruginosa strain (ΔMexABCDXY), N150, was derived from PAO1.
Minimum Inhibitory Concentration (MIC) Measurements.

[3] = molecular target: T1, paLpxC (Pseudomonas aeruginosa (strain ATCC 15692 / DSM 22644 / CIP 104116 / JCM 14847 / LMG 12228 / 1C / PRS 101 / PAO1), UniProt P47205); assay: biochemical; format: binding; conditions: for Ki / tR (min) Fluorescence assay / residence time fold longer than 1: 37° C.; for Ki: fluorescence competition; for tR (min) Fluorescence assay: tR = 1/koff; for koff: read-out: Koff (s^−1); for kon: read-out: Kon (μM^−1s^−1); for residence time fold longer than 1: fluorescence assay
[4] = molecular target: T1, paLpxC; assay: Spin column (Penefsky) residence time assay on paLpxC; format: binding; conditions: 37° C.
Experimental: FIG. 14. Spin-column assay. A spin-column assay was used to quantify the residence time of inhibitors on paLpxC at 37° C. […] Samples were then subjected to size exclusion chromatography at different times using a Spin-Trap G-25 column (800×g for 2 min). […] Preincubated solutions of enzyme (10 μM) and inhibitor (10 or 20 μM) were diluted 200-fold into a solution of PT855 (1 μM) at 37° C. Aliquots of this solution were withdrawn at various times and subjected to centrifugal gel filtration chromatography using PD SpinTrap™ G-25 columns. The fluorescence of the eluate was quantified, and the data were fit to a single exponential equation to obtain koff (FIG. 14, Tables 4 and 5).
Inhibitor Residence Time Measurements using a Spin Column Assay. […] Subsequently, 10 μL of the incubation mixture was diluted into 2 mL of the same buffer containing 1 μM of PT855, and 100 μL of this mixture was then aliquoted at different time points and loaded onto a PD SpinTrap™ G-25 column (Cytiva) that had been equilibrated with buffer prior to sample loading. […] The fluorescence intensities corresponding to loading diluted EI without the fluorescent competitor and loading the competitor alone were measured separately to determine the dynamic range and endpoint of the assay. […] Rates were calculated by fitting the change in fluorescence intensity over time to a one-phase association equation in GraphPad Prism.

[5] = test system: P. aeruginosa PAO1; assay: Post-antibiotic effect (PAE) in P. aeruginosa PAO1; conditions: PAO1, 4xMIC for 1 h, 37° C.
Experimental: Post-antibiotic effect of the paLpxC inhibitors on wild-type P. aeruginosa. […] The experimental data points are the mean values from triplicate, independent measurements, and the error bars represent the standard deviation from the mean.
After incubating the plates overnight at 37° C., CFUs were enumerated, and the PAE values were calculated using a standard method where the time for the bacteria to recover 1 log post drug washout compared to the control was determined (FIG. 17, Table 6).
Post-antibiotic Effect (PAE). PAEs were determined using P. aeruginosa PAO1. […] The compound was washed out by diluting the culture 1000-fold into fresh CAMH-II medium, and the regrowth of bacteria was monitored by taking 100 μL aliquots each hour and plating serial dilutions on Muller-Hinton agar plates.

T1 sequence (P47205 1-299): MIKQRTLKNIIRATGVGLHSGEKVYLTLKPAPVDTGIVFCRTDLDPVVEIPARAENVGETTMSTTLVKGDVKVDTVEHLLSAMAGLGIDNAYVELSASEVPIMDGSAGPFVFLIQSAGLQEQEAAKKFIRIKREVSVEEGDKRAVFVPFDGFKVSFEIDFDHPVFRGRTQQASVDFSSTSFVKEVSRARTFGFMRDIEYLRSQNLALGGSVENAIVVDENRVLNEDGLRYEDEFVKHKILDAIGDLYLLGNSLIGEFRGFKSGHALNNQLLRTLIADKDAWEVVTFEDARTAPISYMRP

Compound: COc1ccc(-c2ccn(CCC(C)(C(=O)NO)S(C)(=O)=O)c(=O)c2)cc1 (racemic) [PT902, N-hydroxy-4-(4-(4-methoxyphenyl)-2-oxopyridin-1(2H)-yl)-2-methyl-2-(methylsulfonyl)butanamide]
- MIC [1]: 3.12 µM (≈ 1.23 µg/mL)
- MIC [2]: 0.8 µM (≈ 0.316 µg/mL)

Compound: CC(CCn1ccc(-c2ccc(CN3CCOCC3)cc2)cc1=O)(C(=O)NO)S(C)(=O)=O (racemic) [PT904, N-hydroxy-2-methyl-2-(methylsulfonyl)-4-(4-(4-(morpholinomethyl)phenyl)-2-oxopyridin-1(2H)-yl)butanamide]
- Ki [3]: 96.8 ± 3 pM
- tR (min) Fluorescence assay [3]: 4.7 ± 0.2 min
- koff [3]: 0.0035 ± 0.0001 s⁻¹
- kon [3]: 36.4 ± 0.4 µM⁻¹ s⁻¹
- MIC [1]: 50 µM (≈ 23.2 µg/mL)

Compound: C=CCn1cc(-c2ccc(-c3ccn(CCC(C)(C(=O)NO)S(C)(=O)=O)c(=O)c3)cc2)nn1 (racemic) [PT907, 4-(4-(4-(1-allyl-1H-1,2,3-triazol-4-yl)phenyl)-2-oxopyridin-1(2H)-yl)-N-hydroxy-2-methyl-2-(methylsulfonyl)butanamide]
- Ki [3]: 6.1 ± 5.7 pM
- tR (min) Fluorescence assay [3]: 82.8 ± 26.0 min
- koff [3]: 0.00022 ± 7e-05 s⁻¹
- kon [3]: 52 ± 29.5 µM⁻¹ s⁻¹
- tR (min) (Spin column assay) ([4]; direct displacement): 146.5 ± 44.0 min
- k (min^−1), spin-column assay ([4]; first-order fit): 0.007 ± 0.002 min⁻¹
- MIC [1]: 12.5 µM (≈ 5.89 µg/mL)
- MIC [2]: 0.78 µM (≈ 0.368 µg/mL)

Compound: CC(CCn1ccc(-c2ccc(-c3cn(CC4CCCCC4)nn3)cc2)cc1=O)(C(=O)NO)S(C)(=O)=O (racemic) [PT910, 4-(4-(4-(1-(cyclohexylmethyl)-1H-1,2,3-triazol-4-yl)phenyl)-2-oxopyridin-1(2H)-yl)-N-hydroxy-2-methyl-2-(methylsulfonyl)butanamide]
- Ki [3]: 5.5 ± 3.4 pM
- tR (min) Fluorescence assay [3]: 100.2 ± 18.5 min
- koff [3]: 0.00017 ± 3e-05 s⁻¹
- kon [3]: 31 ± 3 µM⁻¹ s⁻¹
- MIC [1]: 50 µM (≈ 26.4 µg/mL)
- MIC [2]: 3.12 µM (≈ 1.65 µg/mL)

Compound: CC1(Cn2cc(-c3ccc(-c4ccn(CCC(C)(C(=O)NO)S(C)(=O)=O)c(=O)c4)cc3)nn2)COC1 (racemic) [PT911, N-hydroxy-2-methyl-4-(4-(4-(1-((3-methyloxetan-3-yl)methyl)-1H-1,2,3-triazol-4-yl)phenyl)-2-oxopyridin-1(2H)-yl)-2-(methylsulfonyl)butanamide]
- MIC [1]: 25 µM (≈ 12.9 µg/mL)
- MIC [2]: 1.56 µM (≈ 0.804 µg/mL)

Compound: CC(CCn1ccc(-c2ccc(-c3cn(CCO)nn3)cc2)cc1=O)(C(=O)NO)S(C)(=O)=O (racemic) [PT912, N-hydroxy-4-(4-(4-(1-(2-hydroxyethyl)-1H-1,2,3-triazol-4-yl)phenyl)-2-oxopyridin-1(2H)-yl)-2-methyl-2-(methylsulfonyl)butanamide]
- Ki [3]: 3.7 ± 2.3 pM
- tR (min) Fluorescence assay [3]: 92.3 ± 11.2 min
- koff [3]: 0.00018 ± 2e-05 s⁻¹
- kon [3]: 59.6 ± 22.9 µM⁻¹ s⁻¹
- MIC [1]: > 50 µM
- MIC [2]: > 12.5 µM

Compound: CC(CCn1ccc(-c2ccc(-c3cn(CC45CC(C4)C5)nn3)cc2)cc1=O)(C(=O)NO)S(C)(=O)=O (racemic) [PT913, 4-(4-(4-(1-(bicyclo[1.1.1]pentan-1-ylmethyl)-1H-1,2,3-triazol-4-yl)phenyl)-2-oxopyridin-1(2H)-yl)-N-hydroxy-2-methyl-2-(methylsulfonyl)butanamide]
- Ki [3]: 2.1 ± 1.6 pM
- tR (min) Fluorescence assay [3]: 123.8 ± 37.2 min and 124.0 ± 37.2 min
- residence time fold longer than 1 [3]: ~3 fold
- koff [3]: 0.00015 ± 5e-05 s⁻¹
- kon [3]: 85.2 ± 32.5 µM⁻¹ s⁻¹
- MIC [1]: 12.5 µM (≈ 6.4 µg/mL)
- PAE (h) 4x [5]: 4 h and 4.0 ± 0.2 h
- MIC [2]: 0.78 µM (≈ 0.399 µg/mL)

Compound: CC(CCn1ccc(-c2ccc(-c3cn(Cc4ccccn4)nn3)cc2)cc1=O)(C(=O)NO)S(C)(=O)=O (racemic) [PT914, N-hydroxy-2-methyl-2-(methylsulfonyl)-4-(2-oxo-4-(4-(1-(pyridin-2-ylmethyl)-1H-1,2,3-triazol-4-yl)phenyl)pyridin-1(2H)-yl)butanamide]
- Ki [3]: 5.5 ± 3.4 pM
- tR (min) Fluorescence assay [3]: 118.5 ± 44.0 min
- residence time fold longer than 1 [3]: ~3 fold
- koff [3]: 0.00016 ± 6e-05 s⁻¹
- kon [3]: 37.2 ± 23 µM⁻¹ s⁻¹
- MIC fold lower than that for PT810 [1]: 2 fold
- MIC [1]: 6.25 µM (≈ 3.27 µg/mL)
- MIC [2]: 0.2 µM (≈ 0.105 µg/mL)

Compound: CC(CCn1ccc(-c2ccc(-c3cn(Cc4ccncc4)nn3)cc2)cc1=O)(C(=O)NO)S(C)(=O)=O (racemic) [PT915, N-hydroxy-2-methyl-2-(methylsulfonyl)-4-(2-oxo-4-(4-(1-(pyridin-4-ylmethyl)-1H-1,2,3-triazol-4-yl)phenyl)pyridin-1(2H)-yl)butanamide]
- MIC [1]: 50 µM (≈ 26.1 µg/mL)
- MIC [2]: 6.25 µM (≈ 3.27 µg/mL)
